# Experimental data reported in publication PMC3847131, “Functional characterization of a serine-threonine protein kinase from Bambusa balcooa that implicates in cellulose overproduction and superior quality fiber formation” (BMC Plant Biology, 2013).
# Molecular target: T1, BbKst-kinase (serine/threonine protein kinase BbKst)
# T1 construct: kinase domain (from 2233 to 3342 bp of cDNA), His-fused, expressed in E. coli BL21
# Test: in vitro […] kinase assay with purified kinase domain
# Type: biochemical, Bambusa balcooa
compound,measurement,value
O=c1c(O)c(-c2ccc(O)c(O)c2)oc2cc(O)cc(O)c12 [quercetin],IC50,7 nM
